Among the data in ChEMBL document CHEMBL1909046, “DrugMatrix in vitro pharmacology data” are IC50 and Ki values, retold here.

The nature of series [1]: DRUGMATRIX: Calcium Channel Type L, Benzothiazepine radioligand binding (ligand: [3H] Diltiazem). In kind it is cell membranes, Rattus norvegicus, Wistar, Brain, Membrane. As to conditions: Not Active = under 50% inhibition at 10 µM.
In another series the target is T1, Cytochrome P450 2A6 (Homo sapiens, UniProt P11509). Also: in other assays of this panel Not Active means under 50% inhibition at 10 µM.
T1 sequence (P11509 whole entry): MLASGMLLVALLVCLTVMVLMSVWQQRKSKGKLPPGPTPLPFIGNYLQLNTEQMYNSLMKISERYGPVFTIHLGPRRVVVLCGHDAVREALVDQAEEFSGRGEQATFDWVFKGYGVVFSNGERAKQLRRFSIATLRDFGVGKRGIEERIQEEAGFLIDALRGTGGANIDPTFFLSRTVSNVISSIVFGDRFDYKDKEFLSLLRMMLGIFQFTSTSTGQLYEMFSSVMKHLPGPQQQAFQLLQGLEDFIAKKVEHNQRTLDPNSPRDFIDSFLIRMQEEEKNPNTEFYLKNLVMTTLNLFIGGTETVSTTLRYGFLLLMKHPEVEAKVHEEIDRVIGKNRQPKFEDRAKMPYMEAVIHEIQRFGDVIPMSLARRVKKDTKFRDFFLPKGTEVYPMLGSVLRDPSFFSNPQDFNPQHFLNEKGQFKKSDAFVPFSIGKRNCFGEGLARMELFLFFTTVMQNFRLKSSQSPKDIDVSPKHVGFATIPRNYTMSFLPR
As to conditions: bti-tn-5b1-4.

Series [2] concerns the target T2, Amine oxidase [flavin-containing] A (Homo sapiens, UniProt P21397).
T2 sequence (P21397 whole entry): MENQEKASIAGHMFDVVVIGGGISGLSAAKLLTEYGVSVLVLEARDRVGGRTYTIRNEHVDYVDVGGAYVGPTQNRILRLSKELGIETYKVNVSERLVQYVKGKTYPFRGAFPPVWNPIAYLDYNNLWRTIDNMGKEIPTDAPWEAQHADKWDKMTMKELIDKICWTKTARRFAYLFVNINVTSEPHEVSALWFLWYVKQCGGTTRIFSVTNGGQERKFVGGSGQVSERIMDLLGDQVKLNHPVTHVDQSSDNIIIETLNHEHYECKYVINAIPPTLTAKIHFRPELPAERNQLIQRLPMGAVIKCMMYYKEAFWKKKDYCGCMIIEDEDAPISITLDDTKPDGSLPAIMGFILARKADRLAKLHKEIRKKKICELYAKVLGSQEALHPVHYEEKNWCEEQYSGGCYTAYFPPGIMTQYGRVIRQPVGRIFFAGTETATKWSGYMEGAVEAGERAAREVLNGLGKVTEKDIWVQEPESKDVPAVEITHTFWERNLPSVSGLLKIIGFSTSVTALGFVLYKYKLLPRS
Kind of series: DRUGMATRIX: Monoamine Oxidase MAO-A enzyme inhibition (substrate: Kynuramine). Also on record: species or system BTI-TN-5B1-4. The conditions noted are these: bti-tn-5b1-4; Not Active = under 50% inhibition at 10 µM.

The target of series [3] is Sodium-dependent noradrenaline transporter (Homo sapiens, UniProt P23975). Kind of series: DRUGMATRIX: Norepinephrine Transporter radioligand binding (ligand: [125I] RTI-55). The conditions noted are these: Not Active = under 50% inhibition at 10 µM; for Ki: read-out: Ki. In kind it is cell membranes, MDCK, Membrane.
The target in another series is Acetylcholinesterase (Homo sapiens, UniProt P22303). Kind of series: DRUGMATRIX: Acetylcholinesterase enzyme inhibition (substrate: acetylthiocholine). Type of series: cell-based, HEK293. As to conditions: Not Active = under 50% inhibition at 10 µM.
Chain of Acetylcholinesterase (P22303 whole entry): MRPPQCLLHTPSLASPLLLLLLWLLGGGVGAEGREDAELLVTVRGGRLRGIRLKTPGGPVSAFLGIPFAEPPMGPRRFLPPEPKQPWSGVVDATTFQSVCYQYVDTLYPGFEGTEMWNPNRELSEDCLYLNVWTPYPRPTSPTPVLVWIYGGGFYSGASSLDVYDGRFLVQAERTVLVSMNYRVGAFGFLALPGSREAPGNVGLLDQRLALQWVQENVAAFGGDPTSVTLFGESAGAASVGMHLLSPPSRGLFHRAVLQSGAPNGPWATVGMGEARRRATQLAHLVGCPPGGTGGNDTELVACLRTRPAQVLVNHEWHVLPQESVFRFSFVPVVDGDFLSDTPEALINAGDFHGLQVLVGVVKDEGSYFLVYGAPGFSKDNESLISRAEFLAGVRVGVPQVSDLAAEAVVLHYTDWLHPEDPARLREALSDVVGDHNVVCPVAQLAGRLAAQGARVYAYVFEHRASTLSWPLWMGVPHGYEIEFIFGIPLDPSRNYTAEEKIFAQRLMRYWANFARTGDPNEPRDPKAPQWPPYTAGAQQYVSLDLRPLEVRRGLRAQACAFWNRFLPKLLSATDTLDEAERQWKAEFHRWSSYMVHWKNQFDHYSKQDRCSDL

Chain of Sodium-dependent noradrenaline transporter (P23975 whole entry): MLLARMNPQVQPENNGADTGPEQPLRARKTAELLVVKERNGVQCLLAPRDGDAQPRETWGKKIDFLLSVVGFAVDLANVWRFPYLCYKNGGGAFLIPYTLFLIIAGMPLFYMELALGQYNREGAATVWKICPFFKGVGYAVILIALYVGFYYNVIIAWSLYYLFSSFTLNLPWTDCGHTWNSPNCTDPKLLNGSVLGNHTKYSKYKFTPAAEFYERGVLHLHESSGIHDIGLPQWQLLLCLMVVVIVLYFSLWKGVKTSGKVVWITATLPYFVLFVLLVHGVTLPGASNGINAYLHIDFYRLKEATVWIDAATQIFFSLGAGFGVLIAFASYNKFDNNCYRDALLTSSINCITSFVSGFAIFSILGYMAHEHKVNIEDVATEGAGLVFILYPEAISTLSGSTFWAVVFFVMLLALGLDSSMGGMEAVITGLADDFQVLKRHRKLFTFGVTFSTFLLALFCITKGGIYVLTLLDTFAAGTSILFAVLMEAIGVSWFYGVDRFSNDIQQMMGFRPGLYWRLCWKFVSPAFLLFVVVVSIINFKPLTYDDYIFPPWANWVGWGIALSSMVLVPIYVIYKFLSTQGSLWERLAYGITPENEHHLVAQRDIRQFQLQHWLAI

Turning to `COc1cc(N)nc2[nH]c(-c3ccc(F)cc3)c(-c3ccncc3)c12`, the IC50 entry in series [1] was “Not Active”; at Cytochrome P450 2A6 it was “Not Active”; in series [2] it was “Not Active”; in series [3] (read-out: IC50), 1.07 µM; at Acetylcholinesterase (hek293), “Not Active”. Also, the inhibitory constant (Ki) result in series [1] was “Not Active”; at Cytochrome P450 2A6, “Not Active”; in series [3], 1.06 µM.
Consider `CNS(=O)(=O)Cc1ccc2[nH]cc(CCN(C)C)c2c1`, for which the IC50 entry (in series [1]; against Cytochrome P450 2A6; in series [2]; in series [3] (mdck); against Acetylcholinesterase (hek293)) was “Not Active” each time. Further, the Ki result (in series [1]; on Cytochrome P450 2A6) was “Not Active” throughout.
Turning to `CCCc1nn(C)c2c(=O)[nH]c(-c3cc(S(=O)(=O)N4CCN(C)CC4)ccc3OCC)nc12`, the IC50 entry (in series [1]; against Cytochrome P450 2A6; in series [2]; in series [3] (mdck); on Acetylcholinesterase (hek293)) was “Not Active” in each case. Also, the Ki entry (in series [1]; on Cytochrome P450 2A6) was “Not Active” in each case.
For the compound `COc1ccc(/C=C/C(=O)Nc2ccccc2C(=O)O)cc1OC`, the half-inhibitory concentration (IC50) entry (in series [1]; at Cytochrome P450 2A6; in series [2]; in series [3] (mdck); against Acetylcholinesterase (hek293)) was “Not Active” in each case. The Ki entry (in series [1]; on Cytochrome P450 2A6) was “Not Active” in each case.
For `CCOC(N)=O`, the IC50 entry (in series [1]; against Cytochrome P450 2A6; in series [2]; in series [3] (mdck); on Acetylcholinesterase (hek293)) was “Not Active” throughout. Further, the inhibition constant Ki result (in series [1]; at Cytochrome P450 2A6) was “Not Active” throughout.
As to `CC(=O)Nc1nnc(S(N)(=O)=O)s1` [ACETAZOLAMIDE], the IC50 entry (against Cytochrome P450 2A6; in series [2]; in series [3] (mdck); at Acetylcholinesterase (hek293)) was “Not Active” each time. The inhibitory constant (Ki) result on Cytochrome P450 2A6 is given as “Not Active”.
Regarding `O=c1[nH]c2ccccc2n1CCCN1CCC(n2c(=O)[nH]c3cc(Cl)ccc32)CC1` [DOMPERIDONE], the IC50 result (in series [2]; on Acetylcholinesterase (hek293)) was “Not Active” throughout.
As for `CC1=C(CC(=O)O)c2cc(F)ccc2/C1=C\c1ccc(S(C)(=O)=O)cc1` [EXISULIND], the IC50 result (in series [1]; at Cytochrome P450 2A6; in series [2]; in series [3] (mdck); at Acetylcholinesterase (hek293)) was “Not Active” in each case. Further, the Ki entry (in series [1]; at Cytochrome P450 2A6) was “Not Active” in each case.
`CC(C)OC(=O)C(C)(C)Oc1ccc(C(=O)c2ccc(Cl)cc2)cc1` [FENOFIBRATE]: the results for the 50% inhibitory concentration (IC50) entry (against Cytochrome P450 2A6; in series [2]; at Acetylcholinesterase (read-out: IC50)) were “Not Active”, “Not Active” and 15.6 µM, respectively. Also, the Ki entry on Cytochrome P450 2A6 is listed as “Not Active”.
`OCCN1CCN(CCCN2c3ccccc3Sc3ccc(C(F)(F)F)cc32)CC1` [FLUPHENAZINE]: the IC50 entry against Cytochrome P450 2A6 was “Not Active”; in series [2] it was “Not Active”; in series [3] (read-out: IC50), 1.96 µM; against Acetylcholinesterase (hek293), “Not Active”. In addition, the inhibition constant Ki entry at Cytochrome P450 2A6 is “Not Active”; in series [3], 1.95 µM.
As to `CN1C2CCCC1CC(NC(=O)c1nn(C)c3ccccc13)C2` (stereo unspecified) [GRANISETRON], the IC50 result (at Cytochrome P450 2A6; in series [2]; in series [3] (mdck); at Acetylcholinesterase (hek293)) was “Not Active” in each case. For the same compound, at Cytochrome P450 2A6, the Ki entry was “Not Active”.
Turning to `Nc1nc2c(c(=O)[nH]1)N(C=O)C(CNc1ccc(C(=O)N[C@@H](CCC(=O)O)C(=O)O)cc1)CN2` (stereo partly specified) [LEUCOVORIN], the IC50 entry (in series [1]; on Cytochrome P450 2A6; in series [2]; in series [3] (mdck); against Acetylcholinesterase (hek293)) was “Not Active” throughout. In addition, the inhibition constant (Ki) result (in series [1]; on Cytochrome P450 2A6) was “Not Active” in each case.
For the compound `C[C@@H](O)[C@H]1C(=O)N2C(C(=O)O)=C(S[C@@H]3CN[C@H](C(=O)N(C)C)C3)[C@H](C)[C@H]12` [MEROPENEM], the IC50 entry (in series [1]; against Cytochrome P450 2A6; in series [2]; in series [3] (mdck); on Acetylcholinesterase (hek293)) was “Not Active” each time. Moreover, the Ki entry (in series [1]; on Cytochrome P450 2A6) was “Not Active” each time.
`CC[C@@H](CO)NC(=O)[C@@H]1C=C2c3cccc4c3c(cn4C)C[C@H]2N(C)C1` [METHYSERGIDE]: the IC50 entry (at Cytochrome P450 2A6; in series [2]; in series [3] (mdck); on Acetylcholinesterase (hek293)) was “Not Active” each time. In addition, on Cytochrome P450 2A6, the Ki entry is reported as “Not Active”.
In the case of `CCN(CC)CC#CCOC(=O)C(O)(c1ccccc1)C1CCCCC1` (stereo unspecified) [OXYBUTYNIN], the IC50 result (at Cytochrome P450 2A6; in series [2]; at Acetylcholinesterase (hek293)) was “Not Active” in each case. Also, the Ki result at Cytochrome P450 2A6 is recorded as “Not Active”.
Take `O=P(O)(O)C(O)(Cc1cccnc1)P(=O)(O)O` [RISEDRONIC ACID]: the IC50 result (in series [1]; against Cytochrome P450 2A6; in series [2]; in series [3] (mdck); against Acetylcholinesterase (hek293)) was “Not Active” each time. The Ki result (in series [1]; on Cytochrome P450 2A6) was “Not Active” in each case.
With `CN(CCOc1ccc(CC2SC(=O)NC2=O)cc1)c1ccccn1` (stereo unspecified) [ROSIGLITAZONE], the IC50 result (in series [1]; on Cytochrome P450 2A6; in series [2]; in series [3] (mdck); on Acetylcholinesterase (hek293)) was “Not Active” each time. Further, the inhibition constant (Ki) entry (in series [1]; on Cytochrome P450 2A6) was “Not Active” in each case.
Regarding `C=C(C)[C@H]1Cc2c(ccc3c2O[C@@H]2COc4cc(OC)c(OC)cc4[C@@H]2C3=O)O1` [ROTENONE], the half-inhibitory concentration (IC50) entry (in series [1]; at Cytochrome P450 2A6; in series [2]; in series [3] (mdck); on Acetylcholinesterase (hek293)) was “Not Active” throughout. Also, the Ki entry (in series [1]; on Cytochrome P450 2A6) was “Not Active” in each case.
Consider `C#CCN(C)[C@H](C)Cc1ccccc1` [SELEGILINE], for which the IC50 entry (in series [1]; at Cytochrome P450 2A6; in series [3] (mdck); on Acetylcholinesterase (hek293)) was “Not Active” throughout. The Ki entry (in series [1]; at Cytochrome P450 2A6) was “Not Active” throughout.
With `CO[C@H]1C[C@@H]2CC[C@@H](C)[C@@](O)(O2)C(=O)C(=O)N2CCCC[C@H]2C(=O)O[C@H]([C@H](C)C[C@@H]2CC[C@@H](O)[C@H](OC)C2)CC(=O)[C@H](C)/C=C(\C)[C@@H](O)[C@@H](OC)C(=O)[C@H](C)C[C@H](C)/C=C/C=C/C=C/1C` [SIROLIMUS], the IC50 entry (in series [1]; at Cytochrome P450 2A6; in series [2]; in series [3] (mdck); against Acetylcholinesterase (hek293)) was “Not Active” throughout. In addition, the inhibitory constant (Ki) entry (in series [1]; on Cytochrome P450 2A6) was “Not Active” in each case.
In the case of `CN[C@@H]1[C@H](O)[C@H](NC)[C@H]2O[C@@]3(O)C(=O)C[C@@H](C)O[C@H]3O[C@@H]2[C@H]1O` [SPECTINOMYCIN], the IC50 entry (in series [1]; on Cytochrome P450 2A6; in series [2]; in series [3] (mdck); at Acetylcholinesterase (hek293)) was “Not Active” each time. In addition, the inhibition constant Ki entry (in series [1]; on Cytochrome P450 2A6) was “Not Active” in each case.
Regarding `Nc1ccc(S(=O)(=O)Nc2ncccn2)cc1` [SULFADIAZINE], the IC50 result (in series [1]; on Cytochrome P450 2A6; in series [2]; in series [3] (mdck); at Acetylcholinesterase (hek293)) was “Not Active” in each case. In addition, the Ki entry (in series [1]; at Cytochrome P450 2A6) was “Not Active” in each case.
Take `CCS(=O)(=O)CCn1c([N+](=O)[O-])cnc1C` [TINIDAZOLE]: the IC50 result (in series [1]; in series [2]; in series [3] (mdck); on Acetylcholinesterase (hek293)) was “Not Active” each time. In addition, in series [1], the inhibition constant Ki entry is listed as “Not Active”.
Regarding `O=c1n(CCCN2CCN(c3cccc(Cl)c3)CC2)nc2ccccn12` [TRAZODONE], the IC50 result (at Cytochrome P450 2A6; in series [2]; in series [3] (mdck); on Acetylcholinesterase (hek293)) was “Not Active” in each case. Also, on Cytochrome P450 2A6, the Ki entry is on record as “Not Active”.
In the case of `COc1ccc(CN2CCNCC2)c(OC)c1OC` [TRIMETAZIDINE], the concentration for half-maximal inhibition (IC50) entry (in series [1]; in series [2]; in series [3] (mdck); against Acetylcholinesterase (hek293)) was “Not Active” in each case. The Ki entry in series [1] was “Not Active”.

As usually defined, the IC50 is the point on the concentration scale where inhibition reaches its midpoint. Broadly, the Ki is a dissociation constant, usually derived from enzyme kinetics or from competition with a known ligand.
